According to article PMC10620772, “Design, synthesis, and biological evaluation of new pyrimidine-5-carbonitrile derivatives as novel anti-cancer, dual EGFR^WT/COX-2 inhibitors with docking studies” (RSC Advances, 2023):
“And” between values parts separate entries of the source, which are not always exact repeats. Equal values may be shown once. “Also recorded” adds a separate entry of the source.

Experiments:
Assay type in all cases: cell-based, human
[1] = test system: UACC-257; experiment: NCI60 antitumor screening
[2] = test system: NCI-H322M; experiment: NCI60 antitumor screening
[3] = test system: IGROV1; experiment: NCI60 antitumor screening
[4] = test system: OVCAR-5; experiment: NCI60 antitumor screening
[5] = test system: HS 578T; experiment: NCI60 antitumor screening
[6] = test system: KM12; experiment: NCI60 antitumor screening
[7] = test system: T-47D; experiment: NCI60 antitumor screening
[8] = test system: SW-620; experiment: NCI60 antitumor screening
[9] = test system: HCT-15; experiment: NCI60 antitumor screening
[10] = test system: NCI60 cell lines panel; experiment: NCI60 antitumor screening, full panel
How it was run: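 Single-concentration screen at 10 μM across the NCI60 panel (leukaemia, NSCLC, colon, CNS, melanoma, ovarian, renal, prostate, breast). Results are expressed as percent growth inhibition (GI%) of treated lines.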

[11] = test system: CAKI-1; experiment: NCI60 antitumor screening
[12] = test system: OVCAR-8; experiment: NCI60 antitumor screening
[13] = test system: TK-10; experiment: NCI60 antitumor screening
[14] = test system: NCI-H226; experiment: NCI60 antitumor screening
[15] = test system: NCI-H23; experiment: NCI60 antitumor screening
[16] = test system: EKVX; experiment: NCI60 antitumor screening
[17] = Homo sapiens, NCI-H322M, five-dose

N#Cc1c(-c2ccc(F)cc2)nc(SCc2ccc(F)cc2)nc1N1CCNCC1 [4f, 2-((4-Fluorobenzyl)thio)-4-(4-fluorophenyl)-6-(piperazin-1-yl) pyrimidine-5-carbonitrile]
GI50 ([1]; Homo sapiens, UACC-257, five-dose): 14.8 µM
CC50 ([1]; Homo sapiens, UACC-257, five-dose, read-out: LC50 (the source's name)): 55.8 µM
inhibition at 10 µM ([1]; Homo sapiens, 10 μM single dose, UACC-257 (melanoma), read-out: growth inhibition percent (GI%)): > 100%
TGI ([1]; five-dose): 28.70 µM
GI50 [2, 17]: 14 µM
LC50 (50% lethal concentration) [2, 17]: 52.8 µM
inhibition at 10 µM ([2]; Homo sapiens, 10 μM single dose, NCI-H322M (non-small cell lung cancer), read-out: growth inhibition percent (GI%)): 64%
TGI ([2]; five-dose): 27.20 µM
inhibition at 10 µM ([3]; Homo sapiens, IGROV-1, 10 μM single dose, IGROV1 (ovarian cancer), read-out: growth inhibition percent (GI%)): > 100%
GI50 ([3]; Homo sapiens, IGROV-1, five-dose): 15.6 µM
CC50 ([3]; Homo sapiens, IGROV-1, five-dose, read-out: LC50 (the source's name)): 56.8 µM
TGI ([3]; five-dose): 29.80 µM
GI% ([4]; 10 μM one-dose): 99.16%
GI50 ([4]; Homo sapiens, OVCAR-5, five-dose): 14.5 µM
CC50 ([4]; Homo sapiens, OVCAR-5, five-dose, read-out: LC50 (the source's name)): 53.9 µM
inhibition at 10 µM ([4]; Homo sapiens, 10 μM single dose, OVCAR-5 (ovarian cancer), read-out: growth inhibition percent (GI%)): 99.2%
TGI ([4]; five-dose): 28.00 µM
GI50 ([5]; Homo sapiens, Hs-578T, five-dose): 15.6 µM
CC50 ([5]; Homo sapiens, Hs-578T, five-dose, read-out: LC50 (the source's name)): 77 µM
inhibition at 10 µM ([5]; Homo sapiens, 10 μM single dose, HS 578T (breast cancer), read-out: growth inhibition percent (GI%)): > 100%
TGI ([5]; five-dose): 34.60 µM
GI50 ([6]; Homo sapiens, KM12, five-dose): 18 µM
CC50 ([6]; Homo sapiens, KM12, five-dose, read-out: LC50 (the source's name)): 63 µM
inhibition at 10 µM ([6]; Homo sapiens, 10 μM single dose, KM12 (colon cancer), read-out: growth inhibition percent (GI%)): > 100%
TGI ([6]; five-dose): 33.60 µM
inhibition at 10 µM ([7]; Homo sapiens, T47D, 10 μM single dose, T-47D (breast cancer), read-out: growth inhibition percent (GI%)): > 100%
GI50 ([7]; Homo sapiens, T47D, five-dose): 13.8 µM
CC50 ([7]; Homo sapiens, T47D, five-dose, read-out: LC50 (the source's name)): 67.2 µM
TGI ([7]; five-dose): 30.40 µM
GI50 ([8]; Homo sapiens, SW-620, five-dose): 5.97 µM
CC50 ([8]; Homo sapiens, SW-620, five-dose, read-out: LC50 (the source's name)): 48.7 µM
inhibition at 10 µM ([8]; Homo sapiens, 10 μM single dose, SW-620 (colon cancer), read-out: growth inhibition percent (GI%)): > 100%
TGI ([8]; five-dose): 19.30 µM
GI50 ([9]; Homo sapiens, HCT-15, five-dose): 11.7 µM
CC50 ([9]; Homo sapiens, HCT-15, five-dose, read-out: LC50 (the source's name)): 51.8 µM
inhibition at 10 µM ([9]; Homo sapiens, 10 μM single dose, HCT-15 (colon cancer), read-out: growth inhibition percent (GI%)): > 100%
TGI ([9]; five-dose): 24.60 µM
One-dose activity over the NCI60 panel ([10]; 10 μM): lethal to most of cell lines; also recorded: Lethal to almost all NCI60 cell lines
inhibition at 10 µM ([10]; Homo sapiens, 10 μM single dose, mean over NCI60 cell lines, read-out: Mean growth inhibition percent (GI%)): > 100%
GI50 ([10]; Homo sapiens, average of all cell lines, read-out: Full panel MG-MID (GI50)): 13.5 µM
Full panel MG-MID (TGI) ([10]; average of all cell lines): 26.45 μM and 26.45 ^e μM
GI50 ([11]; Homo sapiens, CAKI-1, five-dose): 15.3 µM
CC50 ([11]; Homo sapiens, CAKI-1, five-dose, read-out: LC50 (the source's name)): 54.6 µM
inhibition at 10 µM ([11]; Homo sapiens, 10 μM single dose, CAKI-1 (renal cancer), read-out: growth inhibition percent (GI%)): > 100%
TGI ([11]; five-dose): 29.00 µM
GI50 ([12]; Homo sapiens, OVCAR-8, five-dose): 13.2 µM
CC50 ([12]; Homo sapiens, OVCAR-8, five-dose, read-out: LC50 (the source's name)): 70.6 µM
inhibition at 10 µM ([12]; Homo sapiens, 10 μM single dose, OVCAR-8 (ovarian cancer), read-out: growth inhibition percent (GI%)): > 100%
TGI ([12]; five-dose): 30.50 µM
GI50 ([13]; Homo sapiens, TK-10, five-dose): 15 µM
LC50 ([13]; Homo sapiens, TK-10, five-dose): 58.8 µM
inhibition at 10 µM ([13]; Homo sapiens, 10 μM single dose, TK-10 (renal cancer), read-out: growth inhibition percent (GI%)): > 100%
TGI ([13]; five-dose): 29.70 µM
GI50 ([14]; Homo sapiens, NCI-H226, five-dose): 15.9 µM
CC50 ([14]; Homo sapiens, NCI-H226, five-dose, read-out: LC50 (the source's name)): 80.3 µM
inhibition at 10 µM ([14]; Homo sapiens, 10 μM single dose, NCI-H226 (non-small cell lung cancer), read-out: growth inhibition percent (GI%)): 23.1%
TGI ([14]; five-dose): 35.70 µM
GI50 ([15]; Homo sapiens, NCI-H23, five-dose): 16 µM
CC50 ([15]; Homo sapiens, NCI-H23, five-dose, read-out: LC50 (the source's name)): 57.5 µM
inhibition at 10 µM ([15]; Homo sapiens, 10 μM single dose, NCI-H23 (non-small cell lung cancer), read-out: growth inhibition percent (GI%)): > 100%
TGI ([15]; five-dose): 30.40 µM
GI% ([16]; 10 μM one-dose): 98.71%
GI50 ([16]; Homo sapiens, EKVX, five-dose): 13.1 µM
LC50 ([16]; Homo sapiens, EKVX, five-dose): 52.9 µM
inhibition at 10 µM ([16]; Homo sapiens, 10 μM single dose, EKVX (non-small cell lung cancer), read-out: growth inhibition percent (GI%)): 98.7%
